Row | melting point | SMILES
1 | 165 to 167 °C | CC(C)c1nc(CN2C(=O)C3(COc4cc5c(cc43)OCO5)c3c(Cl)cccc32)no1 (centres undefined)
2 | 44 °C | CCOC(=O)C=Cc1cc([N+](=O)[O-])ccc1C
3 | 89 to 90 °C | CCCn1nnn(-c2cc(Cl)c(Cl)cc2Cl)c1=O
4 | 68 to 68.5 °C | Cc1c(F)c(N)cc(Br)c1F
5 | 161 to 166 °C | CCN1CCCC1CNC(=O)c1ccc2c(c1)C(=O)C1(CC1)O2 (centres undefined)
6 | 300 to 303 °C | CC12CCC3c4ccc(C(=O)O)cc4CCC3C1CCC2C(=O)c1ccc(C(F)(F)F)cc1 (centres undefined)
7 | 90 to 92 °C | COC(=O)c1cc(N=NN(C)C)cs1
8 | 150 to 151 °C | COc1ccc(-c2oc(C(F)(F)F)nc2-c2ccc(S(N)(=O)=O)cc2)cc1F
9 | 192 °C | C#CCOc1cc(C(=O)O)cc(N)c1C(=O)c1ccccc1
10 | 171 to 173 °C | CCOC(=O)Cc1c(C#N)cnc2c(NC(=O)c3c(Cl)cccc3Cl)cccc12
11 | 103 to 106 °C | COC(=O)c1c(NC(C)=O)sc2c1CCCC2
12 | 172 to 174 °C | COc1ccc(-c2ncc(NC(=O)OCc3ccccc3)c(=O)n2CC(=O)NC(Cc2ccccc2)C(=O)C(F)(F)F)cc1 (centres undefined)
13 | > 300 °C | Cc1c[nH]c2c(NC(=O)c3c(Cl)cccc3Cl)cccc2c1=O
14 | 186 to 190 °C | Cc1nc(-c2cc(Cl)ccc2Cl)n2c1nnc1cc(F)ccc12
15 | 181 to 182 °C | O=[N+]([O-])CS(=O)(=O)c1c[nH]c2ccccc12
16 | 53 to 55 °C | CCC#CC(C)(C)NC(=O)C(Br)CC (centres undefined)
17 | 195 to 196 °C | CCc1cc2cc(O)ccc2c(Oc2ccc(/C=C/C(=O)N3CCN(C)CC3)cc2)c1-c1ccccc1
18 | 235 to 237 °C | Cc1cnc(CCCCn2cnc(NC(N)=NCC(F)(F)F)n2)nc1O
19 | 221 to 223 °C | CC(=NNC(=O)c1cccc(C)c1)c1cc(Cl)cc(Cl)c1O
20 | 69 to 70 °C | CCCCC1=C(Cl)C(=O)c2ccccc2C1=O
21 | 130 to 131 °C | FC(F)(F)c1cccc(-c2cnn(-c3cccnc3)c2)n1
22 | 211 to 213 °C | COc1ccc(CCNc2nc(N)n3nc(-c4ccco4)nc3n2)cc1
23 | 184 to 185 °C | O=C(O)c1c(OCc2cccc(OCc3ccc4ccccc4n3)c2)cccc1C(F)(F)F
24 | 137 °C | C=CCOc1c(Cl)cc(C2=NNC(=O)CC2)cc1Cl
25 | 144 to 145 °C | CS(=O)(=O)c1c(C(=O)c2cnoc2C2CC2)ccc(Br)c1F

Row | melting point | SMILES
26 | 212 to 213 °C | O=S(=O)(c1ccc(F)cc1)c1c[nH]c2ncccc12
27 | 126 to 135 °C | C=CCOC(=O)c1ccc(COC(=O)Nc2cnc(-c3ccccc3)n(CC(=O)NC(Cc3ccccc3)C(O)C(F)(F)F)c2=O)cc1 (centres undefined)
28 | 104 to 106 °C | C=CC(=O)OCCc1cc(=O)c(OCc2ccccc2)c(C(=O)c2ccc(Cc3ccc(F)cc3)o2)o1
29 | 154 to 155 °C | CCOC(=O)c1cn(Cc2ccccc2)nc1OCc1ccc(OCc2nc(-c3ccccc3)oc2C)c(OC)c1
30 | 122 to 124 °C | COc1cc2c(c(OC)c1)C1=C(CC2)C2=CCC(OC(C)=O)C2(C)CC1 (centres undefined)
31 | 184 to 186 °C | CC(=O)Nc1ccc(S(=O)(=O)N[C@H]2COCOC[C@H]2OC(C)=O)cc1 (relative stereo)
32 | 159 to 160 °C | OCc1ccc(OCc2ccc(-c3ccccc3)cn2)cc1
33 | 107 to 108 °C | Cc1cc(C)c2c(c1C)OC(=O)C2c1ccc(C(C)C)cc1 (centres undefined)
34 | 203 to 204 °C | CCCCOc1c(CNC(=O)OCC2c3ccccc3-c3ccccc32)n(CC(C)C)c(=O)c2ccc(-c3nc(C(=O)OCC)cs3)cc12
35 | 81 to 83 °C | COc1ccc(/C=C/C(=O)N(C)CC(O)CO)cc1 (centres undefined)
36 | 76 to 78 °C | COC(=O)c1cc(N)c(F)cc1Cl
37 | 214 to 215 °C | O=C(Nc1cn(C2CCCCO2)nc1C(=O)NCCO)c1ccccn1 (centres undefined)
38 | 269 to 271 °C | COC(=O)c1cc(O)c2c(ccc3sc4ccc(F)cc4c32)n1
39 | 176 to 177 °C | COc1cccc(CC(=O)O)c1OCCCc1cn(-c2ccc(NS(C)(=O)=O)cn2)nc1C(C)C
40 | 132 to 134 °C | O=c1c(-c2ccccc2)coc2ccccc12
41 | 149 to 150 °C | Cn1nnnc1-c1ccc2[nH]ccc2c1
42 | 175 to 176 °C | C=CCOc1cc(O)c(C#N)c(Cl)c1
43 | 153 to 156 °C | CC1CC(N)(C(=O)O)c2cc(F)ccc2O1 (mixture of isomers)
44 | 151 to 153 °C | OCCCc1nc2cccnc2[nH]1
45 | 114 to 115 °C | CCOC(=O)c1ccc(-c2ccc(OC)c(Br)c2)cc1
46 | 110 to 112 °C | O=C(CCCN1CCOCC1)c1ccc2c(c1)Cc1cc(C(=O)CCCN3CCOCC3)ccc1O2
47 | 180 to 183 °C | CC(C)OC(=O)c1cc(-n2c(=O)[nH]c3c(c2=O)CSC3)c(F)cc1Cl
48 | 160 to 161 °C | N#Cc1cc(C(F)(F)F)ccc1Nc1ccccc1[N+](=O)[O-]
49 | 141 °C | Cc1nc(Br)c(C=O)n1Cc1cc2c(cc1Cl)OCO2
50 | 87 °C | CCOC(=O)C(=CNC(C)(C)C)C(=O)c1cc(F)c(Cl)cc1Cl

Row | melting point | SMILES
51 | 139 to 140 °C | COc1ccc2c(n1)c(CCNC(=O)c1ccco1)c1n2CCCO1
52 | 124 °C | CCCCC(O)(c1cn(C(c2ccccc2)(c2ccccc2)c2ccccc2)cn1)c1cc(Cl)cc2c1OC(C)(C)OC2 (centres undefined)
53 | 127 to 128 °C | CN(C)c1ccc(C=CC(=O)c2ccc(OCCO)cc2)cc1
54 | 191 °C | CO[C@@H]1CN(CCC#N)CC[C@@H]1NC(=O)c1cc(Cl)c(N)c2c1OCC2 (relative stereo)
55 | 164 °C | CCOC(=O)C(=O)Nc1cc(Br)c2ccccc2c1NC(=O)C(=O)OCC
56 | 174 °C | O=C(O)c1cc(NCc2ccccc2)ccc1O
57 | > 300 °C | Cc1[nH]n(C2CCCC2)c2nc(-c3cc[nH]c(=O)c3)nc(=O)c1-2
58 | 130 to 132 °C | O=C(O)CN1CCNCC1
59 | 167 to 168 °C | COCCOc1cc2ncnc(Oc3ccc(Cl)cc3F)c2cc1OC
60 | 86 to 87 °C | CCCCCOC1=C(c2ccccc2)C(CCC(=O)O)OC1=O (centres undefined)
61 | 132 to 134 °C | O=C(Nc1c(C(O)(C(F)(F)F)C(F)(F)F)ccc2ccccc12)c1cc2ccccc2s1
62 | 155 to 157 °C | Cc1c(C)c2c(c(C)c1NC(=O)OC(C)(C)C)C(O)(c1ccc(C(C)C)cc1)C(C)(C)O2 (centres undefined)
63 | 70 °C | Cc1ccc(C)c2c1CCC2=O
64 | 219 to 223 °C | CCc1cc(Oc2cccnc2)c(S(C)(=O)=O)cc1C(=O)N=C(N)N
65 | 96 to 97 °C | COc1ccc(N(CCCCCO)S(=O)(=O)c2c(F)c(F)c(F)c(F)c2F)cc1
66 | 112 to 113 °C | c1cc(CCCn2ccnc2)cc(OCc2coc(-c3cccs3)n2)c1
67 | 110 to 114 °C | O[C@@H]1c2ccccc2CC[C@H]1NCc1ccccc1 (relative stereo)
68 | 107 to 110 °C | C1=C(c2cc3ccccc3s2)CCC2(C1)CCNCC2
69 | 197 to 199 °C | COC(=O)c1nc2cc(C)cc(Cl)c2c(O)c1C(=O)OC
70 | 96 to 98 °C | CC1(C)C2CC[C@@]1(C)C(=O)C(C(=O)Nc1ccc(F)c(C(F)(F)F)c1)C2=O (some centres undefined)
71 | > 230 °C | Cc1c(F)cccc1NC(=O)c1ccccc1CN1C(=O)C2(COc3cc4c(cc32)CCO4)c2ccccc21 (centres undefined)
72 | 84 °C | COc1ccc(CN(CCN(C)CCNC(=O)NCCSCc2csc(NC(=N)N)n2)c2ccccn2)cc1
73 | 83 to 84 °C | OC1CCc2c(I)cccc21 (centres undefined)
74 | 151 to 153 °C | Fc1ccc(N2CCN(CCCOc3ccc(-n4cccn4)cc3)CC2)cc1
75 | 152 to 154 °C | CCn1c2ccccc2c2cc(N(c3ccccc3)c3ccccc3)ccc21

Row | melting point | SMILES
76 | 113 to 115 °C | Cc1ccc([C@H](CC(=O)O)NC(=O)Nc2c(O)ccn(Cc3ccccc3Cl)c2=O)cc1
77 | 185 to 186 °C | COC(=O)c1ccc(C)c(-n2c(C)cc(OCc3ccccc3CNC(=O)Nc3cc(C(C)(C)C)nn3-c3ccc(O)c(Cl)c3)c(Cl)c2=O)c1
78 | 55 °C | CCCC(Cc1ccc(OCCN2CCCCCC2)cc1)(C(=O)OCC)S(=O)(=O)c1ccc(OC)cc1 (centres undefined)
79 | 204 to 205 °C | CCC(=O)Nc1cc(-c2c(-c3ccc(Cl)cc3)nc3cccnn23)ccn1
80 | 127 to 137 °C | Cc1noc(NS(=O)(=O)c2ccccc2-c2ccc(-c3ncco3)cc2CN(C)C(=O)c2ccccc2F)c1C
81 | 50 to 51 °C | COc1ccc(C2COC(=O)C2CSC2CCCCC2)cc1 (centres undefined)
82 | 155 to 157 °C | CCCN(c1ccc(C(=O)OCC)cc1)c1nc(=O)c2cccnc2s1
83 | 135 to 137 °C | CCOC(=O)c1ccc(NC=O)c(C(=O)CCNC(=O)OC(C)(C)C)c1
84 | 110 °C | Clc1cnc(Oc2cccc(OCc3ccc(Cl)cc3Cl)c2)nc1
85 | 178 to 180 °C | Cc1nc2c(N)nc3ccc(OCc4ccccc4)cc3c2n1CCCCNC(=O)N1CCOCC1
86 | 92 to 94 °C | Cc1cc(C)c(N2CCCCC2)cc1NS(=O)(=O)C(F)(F)F
87 | 98 to 99 °C | CCCCCCCCCCOc1ccc(C(=O)Nc2cc(CCC(=O)CC3CCCCCC3)ccc2C(C)(C)C)cc1
88 | 194 to 195 °C | O=C(O)Cc1oc2ccc(Cl)cc2c1-c1ccccc1
89 | 164 to 166 °C | CCCOc1ccccc1-c1nc(NCCO)cc(=O)[nH]1
90 | 115 to 118 °C | CCCSC(=S)N1C(CO)Cc2c([nH]c3ccccc23)C1C (centres undefined)
91 | 178 to 179 °C | Cc1ccc(-c2ccc3c(c2)C=C(C(=O)Nc2ccc(CN(C)C4CCOCC4)cc2)CC(c2ccccc2)O3)cc1 (centres undefined)
92 | 200 to 202 °C | CCOC(=O)C(=O)Nc1cccc(O)c1C(N)=O
93 | 97 °C | COc1ccc2c(CN(C)C)cc(=O)oc2c1
94 | 161 to 162 °C | Cc1cc(OCc2coc(/C=C/c3ccc(C(F)(F)F)cc3)n2)ccc1CS(=O)CCc1ccnn1C (centres undefined)
95 | 167 to 169 °C | CNc1cc(C(=O)O)ccc1C
96 | 166 to 167 °C | O=C(O)C1CCc2ccc3[nH]ccc3c21 (centres undefined)
97 | 75 to 77 °C | CC12CCC3c4ccc(N)cc4CCC3C1CCC2O (centres undefined)

Row | SMILES | melting point
98 | C[C@H]1C[C@H](O)CN1c1ccc(C#N)c2ccccc12 | 149 to 151 °C
99 | O=c1[nH]c(=O)n(CCCCN2CC=C(c3ccccc3)CC2)c2ccccc12 | 170 to 174 °C

Source: a melting point compilation (Tetko et al.; mined from patent text by program, amines drawn as free bases though some values may be those of a salt)
